Laboratory results from patent publication US20220177902A1, “LOW-METHANE RICE” (priority 2019, published 2022).

Tested on: methanogens
Assay: Methanogen propagation upon fumarate treatment of rice (qPCR methanogen determination)
Settings: SUSIBA2 rice and Nipponbare rice treated with fumarate for two weeks (from Week 6 to Week 8), groups Mst, MET, Msc, MBT, MMB, Arc
Method: FIG. 12. Response of methanogen propagation of different groups upon fumarate treatment for two weeks (from Week 6 to Week 8). Mst (Methanosaetaceae), MET (methanogens), Msc (Methanosarcinaceae), MBT (Methanobacteriales), MMB (Methanomicrobiales), Arc (archaea), and Met for Methanocella-specific.
Quantitative PCR was performed for both methanogen determination and rice gene expression in the same way as described in Su et al. (2015).
CRISPR/Cas technology was used to successfully delete the yin transcription factor (sucrose-response region) in the yin-yang system (Jin et al. (2017)) in rice to achieve larger panicles (FIG. 11). The increased panicle size meant that more carbon was reallocated to the panicles, which in turn led to less carbon to fumarate section from roots below ground.

O=C(O)/C=C/C(=O)O [fumarate]
Response of methanogen propagation of different groups upon fumarate treatment: all methanogen groups propagated
